From PMC10728955 (RSC Advances, 2023)

Key:
MCF-7 cells [1] = experiment: cells; conditions: Homo sapiens, MCF7, read-out: In vitro cytotoxicity IC50, MCF-7
HepG2 cells = experiment: cells; conditions: Homo sapiens, HepG2, read-out: In vitro cytotoxicity IC50, HepG2
Bcl-2 = type: cell-based; conditions: MCF-7, 0.04 μM
Human VEGFR-2 = Human VEGFR-2 (Homo sapiens, UniProt P35968); experiment: In vitro VEGFR-2 inhibition, VEGFR-2 ELISA kit; type: biochemical
MCF-7 cells [2] = experiment: Apoptosis assay, annexin V-FITC/PI; type: cell-based; conditions: 0.04 μM, 72 h
[3] = system: normal human lung cells (WI-38); experiment: cells; conditions: WI-38, read-out: WI-38 IC50
MCF-7 cells [4] = experiment: Cell migration and scratch wound healing assay; type: cell-based
[5] = system: normal human lung cells (WI-38); conditions: WI-38 versus HepG2
MCF-7 cells [6] = experiment: Cell cycle analysis by flow cytometry; type: cell-based; conditions: 0.041 μM, 72 h

Chain of Human VEGFR-2 (P35968 20-1356): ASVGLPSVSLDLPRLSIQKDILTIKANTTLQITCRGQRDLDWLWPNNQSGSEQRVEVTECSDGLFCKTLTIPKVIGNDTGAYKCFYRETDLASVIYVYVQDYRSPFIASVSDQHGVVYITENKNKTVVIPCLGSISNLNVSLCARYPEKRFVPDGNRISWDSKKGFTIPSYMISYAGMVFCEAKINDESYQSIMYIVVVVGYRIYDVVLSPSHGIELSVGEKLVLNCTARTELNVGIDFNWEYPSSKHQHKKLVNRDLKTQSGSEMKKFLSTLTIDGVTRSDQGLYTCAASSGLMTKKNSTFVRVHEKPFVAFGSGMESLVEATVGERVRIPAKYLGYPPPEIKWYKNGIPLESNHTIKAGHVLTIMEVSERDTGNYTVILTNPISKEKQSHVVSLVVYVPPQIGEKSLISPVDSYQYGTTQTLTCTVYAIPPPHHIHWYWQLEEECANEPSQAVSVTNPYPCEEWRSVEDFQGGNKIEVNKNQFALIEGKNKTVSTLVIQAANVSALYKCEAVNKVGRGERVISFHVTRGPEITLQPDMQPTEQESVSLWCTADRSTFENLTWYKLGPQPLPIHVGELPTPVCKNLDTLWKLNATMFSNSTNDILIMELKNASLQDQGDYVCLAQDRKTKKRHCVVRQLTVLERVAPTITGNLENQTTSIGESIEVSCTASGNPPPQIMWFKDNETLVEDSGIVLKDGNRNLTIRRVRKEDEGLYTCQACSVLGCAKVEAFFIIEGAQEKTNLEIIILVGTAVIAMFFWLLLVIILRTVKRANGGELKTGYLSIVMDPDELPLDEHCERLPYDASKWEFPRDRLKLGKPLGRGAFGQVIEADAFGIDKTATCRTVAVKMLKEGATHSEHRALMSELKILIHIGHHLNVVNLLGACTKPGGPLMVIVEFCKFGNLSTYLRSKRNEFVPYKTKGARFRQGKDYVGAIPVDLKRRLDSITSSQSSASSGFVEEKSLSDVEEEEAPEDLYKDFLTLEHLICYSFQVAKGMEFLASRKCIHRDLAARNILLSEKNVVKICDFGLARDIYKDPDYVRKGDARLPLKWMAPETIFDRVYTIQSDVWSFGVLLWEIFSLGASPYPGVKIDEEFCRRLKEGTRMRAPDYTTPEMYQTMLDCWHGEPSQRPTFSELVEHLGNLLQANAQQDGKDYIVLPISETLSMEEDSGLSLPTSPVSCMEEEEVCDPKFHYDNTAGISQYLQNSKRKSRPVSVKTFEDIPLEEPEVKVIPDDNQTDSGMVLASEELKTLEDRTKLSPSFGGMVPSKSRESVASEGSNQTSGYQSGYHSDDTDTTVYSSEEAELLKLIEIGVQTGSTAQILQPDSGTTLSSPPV

`CNC(=O)c1cc(Oc2ccc(NC(=O)Nc3ccc(Cl)c(C(F)(F)F)c3)cc2)ccn1` [Sorafenib, reference compound] was tested, and the IC50 (MCF-7 cells [1]) was 150 ± 13 nM and the IC50 (HepG2 cells) was 140 ± 52 nM.
Compound `CC(=O)c1nn(-c2ccc(Cl)cc2)/c(=N/N=C(\C)c2ccc(NC(=O)c3ccc(Cl)cc3)cc2)s1` [Compound 18d, N-(4-((E)-1-(((Z)-5-Acetyl-3-(4-chlorophenyl)-1,3,4-thiadiazol-2(3H)-ylidene) hydrazono)ethyl)phenyl)-4-chlorobenzamide] has an IC50 (MCF-7 cells [1]) of 5000 ± 192 nM and an IC50 (HepG2 cells) of 6170 ± 19 nM.
For `COc1ccc(-n2nc(C(C)=O)s/c2=N\N=C(/C)c2ccc(NC(C)=O)cc2)cc1` [Compound 14, N-(4-((E)-1-(((Z)-5-acetyl-3-(4-methoxyphenyl)-1,3,4-thiadiazol-2(3H)-ylidene)hydrazineylidene)ethyl)phenyl)acetamide], the IC50 (MCF-7 cells [1]) was 40 ± 9 nM, the “Lowering of Bcl-2 level versus control” value (Bcl-2) was 6.2 fold and the “RT-PCR fold change, Bcl2” value (Bcl-2; control = 1) was 0.159 fold. For the same compound, the IC50 (Human VEGFR-2; VEGFR-2 IC50, as printed in section 3.2.3) was 243 nM, the IC50 (Human VEGFR-2; VEGFR-2 IC50, as printed in the abstract) was 103 nM and the “Early apoptosis (%)” value (MCF-7 cells [2]) was 16.53%. For the same compound, the “Late apoptosis (%)” value (MCF-7 cells [2]) was 29.57%, the “Necrosis (%)” value (MCF-7 cells [2]) was 5.95% and the “Necrosis percentage enhancement versus control” value (MCF-7 cells [2]) was “four-fold”. For the same compound, the “Total apoptosis (%)” value (MCF-7 cells [2]) was 52.05%, the “Total apoptosis enhancement versus control” value (MCF-7 cells [2]) was 22 fold and the IC50 [3] was 140 nM. For the same compound, the IC50 (HepG2 cells) was 180 ± 6 nM, the “Area difference (%)” value (MCF-7 cells [4]; MCF-7, after 48 h) was 361.667% and the “RM (rate of migration)” value (MCF-7 cells [4]; MCF-7, after 48 h) was 7.532 μm. For the same compound, the “Wound area at 0 h” value (MCF-7 cells [4]; MCF-7 scratch assay) was 933.000 μm^2, the “Wound area at 24 h” value (MCF-7 cells [4]; MCF-7 scratch assay) was 836.333 μm^2 and the “Wound area at 48 h” value (MCF-7 cells [4]; MCF-7 scratch assay) was 571.333 μm^2. For the same compound, the “Wound width at 0 h” value (MCF-7 cells [4]; MCF-7 scratch assay) was 932.006 μm, the “Wound width at 24 h” value (MCF-7 cells [4]; MCF-7 scratch assay) was 835.443 μm and the “Wound width at 48 h” value (MCF-7 cells [4]; MCF-7 scratch assay) was 570.472 μm. The “Selectivity index, HepG2” value [5] was roughly 1.28, the “Cell cycle distribution (%) G0–G1” value (MCF-7 cells [6]) was 68.43% and the “Cell cycle distribution (%) G2/M” value (MCF-7 cells [6]) was 9.3%. For the same compound, the “Cell cycle distribution (%) S” value (MCF-7 cells [6]) was 22.27% and the “Increase of cell population at G0–G1 phase versus control” value (MCF-7 cells [6]) was 1.09 fold.
With `COc1ccc(-n2nc(C(C)=O)s/c2=N\N=C(/C)c2ccc(NC(=O)c3ccccc3)cc2)cc1` [Compound 18a, N-(4-((E)-1-(((Z)-5-Acetyl-3-(4-methoxyphenyl)-1,3,4-thiadiazol-2(3H)-ylidene) hydrazono)ethyl)phenyl) benzamide] the IC50 (MCF-7 cells [1]) was 160 ± 17 nM and the IC50 (HepG2 cells) was 800 ± 12 nM.
For `CC(=O)c1nn(-c2ccc(Cl)cc2)/c(=N/N=C(\C)c2ccc(NC(=O)c3ccccc3)cc2)s1` [Compound 18b, N-(4-((E)-1-(((Z)-5-Acetyl-3-(4-chlorophenyl)-1,3,4-thiadiazol-2(3H)-ylidene) hydrazono)ethyl)phenyl) benzamide], the IC50 (MCF-7 cells [1]) was 220 ± 98 nM and the IC50 (HepG2 cells) was 200 ± 11 nM.
`COc1ccc(-n2nc(C(C)=O)s/c2=N\N=C(/C)c2ccc(NC(=O)c3ccc(Cl)cc3)cc2)cc1` [Compound 18c, N-(4-((E)-1-(((Z)-5-Acetyl-3-(4-methoxyphenyl)-1,3,4-thiadiazol-2(3H)-ylidene) hydrazono)ethyl)phenyl)-4-chlorobenzamide] gave an IC50 (MCF-7 cells [1]) of 190 ± 14 nM and an IC50 (HepG2 cells) of 160 ± 32 nM.
With `CC(=O)c1nn(-c2ccc(Cl)cc2)/c(=N/N=C(\C)c2ccc(NC(=O)c3ccc(C)cc3)cc2)s1` [Compound 18f, N-(4-((E)-1-(((Z)-5-Acetyl-3-(4-chlorophenyl)-1,3,4-thiadiazol-2(3H)-ylidene) hydrazono)ethyl)phenyl)-4-methylbenzamide] the IC50 (MCF-7 cells [1]) was 440 ± 65 nM and the IC50 (HepG2 cells) was 180 ± 18 nM.
Compound `COc1ccc(-n2nc(C(C)=O)s/c2=N\N=C(/C)c2ccc(NC(=O)c3ccc(C)cc3)cc2)cc1` [Compound 18e, N-(4-((E)-1-(((Z)-5-Acetyl-3-(4-methoxyphenyl)-1,3,4-thiadiazol-2(3H)-ylidene) hydrazono)ethyl)phenyl)-4-methylbenzamide] has an IC50 (MCF-7 cells [1]) of 190 ± 45 nM and an IC50 (HepG2 cells) of 210 ± 45 nM.
